Laboratory results published in US20070265270A1, “Cinnoline derivatives as phosphodiesterase 10 inhibitors” (priority 2006, published 2007).

Biological target: T1, mPDE10A7 (Mus musculus, UniProt Q8CA95)
T1 sequence (Q8CA95 446-763 limits assumed): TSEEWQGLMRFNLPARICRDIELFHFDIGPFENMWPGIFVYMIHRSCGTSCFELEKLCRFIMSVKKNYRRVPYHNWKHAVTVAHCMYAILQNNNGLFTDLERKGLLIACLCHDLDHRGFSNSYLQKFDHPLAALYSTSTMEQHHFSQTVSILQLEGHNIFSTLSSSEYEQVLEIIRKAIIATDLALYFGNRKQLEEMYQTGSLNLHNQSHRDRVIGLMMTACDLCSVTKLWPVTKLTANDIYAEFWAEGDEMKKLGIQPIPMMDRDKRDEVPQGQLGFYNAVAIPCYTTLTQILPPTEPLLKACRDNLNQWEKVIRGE
Test: mPDE10A7 enzyme inhibition (IMAP fluorescence polarization)
Assay type: biochemical
Details: fluorescein labeled cAMP or cGMP substrate
Description: Enzyme Activity: To analyze the enzyme activity, 5 μL of serial diluted mPDE10A7 containing lysate were incubated with equal volumes of diluted (100-fold) fluorescein labeled cAMP or cGMP for 30 minutes in MDC HE 96-well assay plates at room temperature. Both the enzyme and the substrates were diluted in the following assay buffer: Tris/HCl (pH 8.0) 50 mM, MgCl2 5 mM, 2-mercaptoethanol 4 mM, BSA 0.33 mg/mL. After incubation, the reaction was stopped by adding 20 μL of diluted (400-fold) binding reagents and was incubated for an hour at room temperature. The plates were counted in an Analyst GT (Molecular Devices) for fluorescence polarization. An IMAP Assay kit (Molecular Device) was used to assess enzyme properties of mPDE10A7. Data were analyzed with SoftMax Pro.
Enzyme Inhibition: To check the inhibition profile, 10 μL of serial diluted compounds were incubated with 30 μl of diluted PDE enzymes in a 96-well polystyrene assay plate for 30 minutes at room temperature. After incubation, 5 μL of the compound-enzyme mixture were aliquoted into a MDC HE black plate, mixed with 5 μl of 100-fold diluted fluorescein labeled substrates (cAMP or cGMP), and incubated for 30 minutes at room temperature. The reaction was stopped by adding 20 μL of diluted binding reagents and counted in an Analyst GT for fluorescence polarization. The data were analyzed with SoftMax Pro.

## COc1cc2nncc(N3CCC(c4ccccc4)C3)c2cc1OC (racemic) [Cpd 12, 6,7-dimethoxy-4-(3-phenylpyrrolidin-1-yl)cinnoline]
Table 3
  IC50: 261 nM

## COc1cc2nncc(N3CCCC(C(=O)N4CCCC4)C3)c2cc1OC (racemic) [Cpd 32, 6,7-Dimethoxy-4-[3-(pyrrolidin-1-ylcarbonyl)piperidin-1-yl]cinnoline]
Table 3
  IC50: 402 nM

## COc1cc2nncc(N3CCCC(Oc4ccccc4)C3)c2cc1OC (racemic) [Cpd 37]
Table 3
  IC50: 113 nM

## COc1cc2nncc(N3CCOC(c4ccc5c(c4)CCO5)C3)c2cc1OC (racemic) [Cpd 38]
Table 3
  IC50: 6.49 nM

## COc1cc2nncc(N3CCCC(C(=O)N4CCCCC4)C3)c2cc1OC (racemic) [Cpd 39]
Table 3
  IC50: 378 nM

## COc1cc2nncc(N3CC(c4ccc(Cl)cc4)OCC3=O)c2cc1OC (racemic) [Cpd 40]
Table 3
  IC50: 427 nM

## COc1cccc(C2CN(c3cnnc4cc(OC)c(OC)cc34)C(=O)CO2)c1 (racemic) [Cpd 52, 4-(6,7-dimethoxycinnolin-4-yl)-6-(3-methoxyphenyl)morpholin-3-one]
Table 3
  IC50: 310 nM

## COc1cc2nncc(N3CCCC(CN4CCCC4=O)C3)c2cc1OC (racemic) [Cpd 62, 1-{[1-(6,7-dimethoxycinnolin-4-yl)piperidin-3-yl]methyl}pyrrolidin-2-one]
Table 3
  IC50: 337 nM

## COc1cc2nncc(N3CCOC(c4ccc(OC(F)(F)F)cc4)C3)c2cc1OC (racemic) [Cpd 63]
Table 3
  IC50: 29.2 nM

## COc1ccc(C2CN(c3cnnc4cc(OC)c(OC)cc34)CC(=O)N2C)cc1 (racemic) [Cpd 65]
Table 3
  IC50: 46.1 nM

## COc1cc2nncc(N3CCOC(c4ccc(O)cc4)C3)c2cc1OC (racemic) [Cpd 74]
Table 3
  IC50: 3.84 nM

## COc1ccc2cc(C3CN(c4cnnc5cc(OC)c(OC)cc45)CCN3)ccc2c1 (racemic) [Cpd 86]
Table 3
  IC50: 1.33 nM

## COc1cc2nncc(N3CCOC(c4ccc(C)cc4F)C3)c2cc1OC (racemic) [Cpd 88]
Table 3
  IC50: 57.8 nM

## COc1cc2nncc(N3CCNC(c4cccs4)C3)c2cc1OC (racemic) [Cpd 93]
Table 3
  IC50: 7.84 nM

## COc1cc2nncc(N3CCNC(c4ccc(N(C)C)cc4)C3)c2cc1OC (racemic) [Cpd 94]
Table 3
  IC50: 1.6 nM

## COc1cc2nncc(N3CCOC(c4ccccc4C)C3)c2cc1OC (racemic) [Cpd 96]
Table 3
  IC50: 14.1 nM

## COc1ccc(CC2CCN(c3cnnc4cc(OC)c(OC)cc34)C2)cc1 (racemic) [Cpd 98]
Table 3
  IC50: 26.6 nM

## CC[C@@H]1CN(c2cnnc3cc(OC)c(OC)cc23)C[C@@H](c2ccc(OC)cc2)O1 (racemic) [Cpd 100]
Table 3
  IC50: 3.57 nM

## COc1cc2nncc(N3CCCC(NC(=O)c4ccccc4F)C3)c2cc1OC (racemic) [Cpd 102]
Table 3
  IC50: 35.1 nM

## COc1cc2nncc(N3CCNC(c4cccc5ccccc45)C3)c2cc1OC (racemic) [Cpd 103]
Table 3
  IC50: 12 nM

## COc1cc2nncc(N3CCCC(C4CCCCC4)C3)c2cc1OC (racemic) [Cpd 104]
Table 3
  IC50: 263 nM

## COc1cc2nncc(N3CCNC(c4cc(OCc5ccccc5)cc(OCc5ccccc5)c4)C3)c2cc1OC (racemic) [Cpd 118]
Table 3
  IC50: 160 nM

## COc1cc(OC)cc(C(=O)NC2CCCN(c3cnnc4cc(OC)c(OC)cc34)C2)c1 (racemic) [Cpd 121]
Table 3
  IC50: 16.3 nM

## COc1ccc(C2CN(c3cnnc4cc(O)c(OC)cc34)CCO2)cc1 (racemic) [compound 127]
Table 4
  IC50: 145 nM

## COc1cc2nncc(-c3nc4ccccc4o3)c2cc1OC [Cpd 1, 4-(1,3-benzoxazol-2-yl)-6,7-dimethoxycinnoline hydroformate]
Table 3
  IC50: 218 nM

## COc1cc2nncc(-n3nc(C(=O)NC4CC4)c4ccccc43)c2cc1OC [Cpd 3, N-cyclopropyl-1-(6,7-dimethoxycinnolin-4-yl)-1H-indazole-3-carboxamide hydroformate]
Table 3
  IC50: 141 nM

## COc1cc2nncc(-c3ccc4c(c3)OCCN4C)c2cc1OC [Cpd 8, 7-(6,7-dimethoxycinnolin-4-yl)-4-methyl-3,4-dihydro-2H-1,4-benzoxazine]
Table 3
  IC50: 23 nM

## COCCOc1ccc2cnn(-c3cnnc4cc(OC)c(OC)cc34)c2c1 [Cpd 19, 6,7-Dimethoxy-4-[6-(2-methoxyethoxy)-1H-indazol-1-yl]cinnoline]
Table 3
  IC50: 140 nM

## COc1cc2nncc(-n3ncc4ccc(N5CCOCC5)cc43)c2cc1OC [Cpd 21, 6,7-dimethoxy-4-(6-morpholin-4-yl-1H-indazol-1-yl)cinnoline]
Table 3
  IC50: 554 nM

## CCN1CCN(c2cccc3c2cnn3-c2cnnc3cc(OC)c(OC)cc23)CC1 [Cpd 48]
Table 3
  IC50: 28.8 nM

## COc1cc2nncc(-n3ncc4c(N5CCN(CC6CC6)CC5)cccc43)c2cc1OC [Cpd 50, 4-{4-[4-(cyclopropylmethyl)piperazin-1-yl]-1H-indazol-1-yl}-6,7-dimethoxycinnoline]
Table 3
  IC50: 63.1 nM

## COc1cc2nncc(N3CCCC(n4ccccc4=O)C3)c2cc1OC (stereo not shown) [Cpd 51]
Table 3
  IC50: 152 nM

## COc1cc2nncc(N3CCCC(c4nc(C)no4)C3)c2cc1OC (stereo not shown) [Cpd 56]
Table 3
  IC50: 190 nM

## COc1ccc(C2(O)CCCN(c3cnnc4cc(OC)c(OC)cc34)C2)cc1 (stereo not shown) [Cpd 64]
Table 3
  IC50: 19.2 nM

## COc1cc2nncc(N3CCC[C@@H](c4ccccc4F)C3)c2cc1OC [Cpd 67]
Table 3
  IC50: 7.01 nM

## CCN(C)c1cccc2c1cnn2-c1cnnc2cc(OC)c(OC)cc12 [Cpd 72]
Table 3
  IC50: 44 nM

## COc1cc2nncc(-n3ncc4c(N5CCCC5)cccc43)c2cc1OC [Cpd 73, 6,7-dimethoxy-4-(4-pyrrolidin-1-yl-1H-indazol-1-yl)cinnoline]
Table 3
  IC50: 96.1 nM

## COc1cc2nncc(-c3ccc4c(c3)N(C)C(=O)C4(C)C)c2cc1OC [Cpd 76]
Table 3
  IC50: 18.7 nM

## COc1ccc(CNC2CCN(c3cnnc4cc(OC)c(OC)cc34)CC2)cc1 [Cpd 78, 1-(6,7-dimethoxycinnolin-4-yl)-N-(4-methoxybenzyl)piperidin-4-amine]
Table 3
  IC50: 1390 nM

## COc1cc2nncc(N3CCC(N4CCCC4=O)CC3)c2cc1OC [Cpd 85]
Table 3
  IC50: 286 nM

## COc1ccc(N2CCC=C(c3cnnc4cc(OC)c(OC)cc34)C2)cc1 [Cpd 101]
Table 3
  IC50: 6.51 nM

## COc1cc2nncc(-n3ncc4c(N5CCN(C(C)=O)CC5)cccc43)c2cc1OC [Cpd 106]
Table 3
  IC50: 16 nM

## COc1cc2nncc(N3CCCC(N(C)C(=O)c4ccccc4)C3)c2cc1OC (stereo not shown) [Cpd 107]
Table 3
  IC50: 58.4 nM

## COc1cc2nncc(N3CCO[C@@H](c4ccc(C)cc4F)C3)c2cc1OC [Cpd 110]
Table 3
  IC50: 2.86 nM

## COc1ccc2cc([C@@H]3CN(c4cnnc5cc(OC)c(OC)cc45)CCN3)ccc2c1 [Cpd 111]
Table 3
  IC50: 10.3 nM

## COc1cc2nncc(-n3ncc4c(Br)cccc43)c2cc1OC [Cpd 113, 4-(4-bromo-1H-indazol-1-yl)-6,7-dimethoxycinnoline]
Table 3
  IC50: 152 nM
